# Assays:
# Assay in all cases: relative viability (nuclei count vs DMSO), 5 days (fraction); higher = more cells survive
# [1] = compound: C1CNCCC1C2=CC(=NN2)C3=CC=NC=C3 + CC1(C)CCC(c2ccc(Cl)cc2)=C(CN2CCN(c3ccc(C(=O)NS(=O)(=O)c4ccc(N[C@H](CCN5CCOCC5)CSc5ccccc5)c(S(=O)(=O)C(F)(F)F)c4)cc3)CC2)C1 [Navitoclax] (partner 0.5 µM)
# How it was run: (§1)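 Values are medians from duplicate plates. Each reflects relative viability, defined as the nuclei count of treated wells over that of vehicle wells. Lung cancer cell lines in 1536-well plates were pin-tool dosed one day after seeding with one drug alone or with a fixed anchor-drug dose plus five library-drug doses (not always all listed) in √10 steps, then fixed, stained and imaged at 4× after 5 days.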
# [2] = compound: C1CNCCC1C2=CC(=NN2)C3=CC=NC=C3 + CS(=O)(=O)CCNCc1ccc(-c2ccc3ncnc(Nc4ccc(OCc5cccc(F)c5)c(Cl)c4)c3c2)o1 [Lapatinib] (partner 2 µM)
# How it was run: as §1
# [3] = compound: C[C@@H](N)c1ccc(C(=O)Nc2ccnc3[nH]ccc23)cc1 + O=C(CCCCCCC(=O)Nc1ccccc1)NO [Vorinostat] (partner 1 µM)
# How it was run: as §1
# [4] = compound: O[C@H]1CC[C@H](Nc2ncc3nc(Nc4c(F)cc(F)cc4F)n([C@H]4CCOC4)c3n2)CC1 [Tanzisertib] + Cc1nc(Nc2ncc(C(=O)Nc3c(C)cccc3Cl)s2)cc(N2CCN(CCO)CC2)n1 [Dasatinib] (partner 0.075 µM)
# How it was run: as §1
Cell Line,relative viability ([1]; first compound 0.08 µM),relative viability ([1]; first compound 0.8 µM),relative viability ([1]; first compound 2.53 µM),relative viability ([1]; first compound 8 µM),relative viability ([2]; first compound 0.08 µM),relative viability ([2]; first compound 0.8 µM),relative viability ([2]; first compound 2.53 µM),relative viability ([2]; first compound 8 µM),relative viability ([3]; first compound 0.04 µM),relative viability ([3]; first compound 0.1265 µM),relative viability ([3]; first compound 0.4 µM),relative viability ([3]; first compound 1.265 µM),relative viability ([3]; first compound 4 µM),relative viability ([4]; first compound 0.08 µM),relative viability ([4]; first compound 0.253 µM),relative viability ([4]; first compound 0.8 µM),relative viability ([4]; first compound 2.53 µM),relative viability ([4]; first compound 8 µM)
NCI-H322M,1.22,1.19,1.24,1.18,0.545,0.555,0.592,0.524,1.21,1.04,1.11,1.05,1.39,0.243,0.248,0.275,0.249,0.262
NCI-H460,0.888,1.38,1.17,1.29,0.68,1.4,1.11,1.03,0.86,0.73,0.771,0.949,0.702,0.595,0.595,0.489,0.474,0.303
NCI-H520,1.06,1.01,1.06,1.28,0.763,0.897,0.92,0.835,0.862,0.757,0.813,0.714,0.693,0.233,0.207,0.232,0.192,0.23
NCI-H596,1.01,1.07,1.02,0.958,1.08,1.17,1.07,0.993,0.596,0.517,0.583,0.654,0.582,0.673,0.614,0.541,0.53,0.459
NCI-H647,1.18,1.33,1.37,1.12,1.06,1.26,1.15,1.01,0.472,0.623,0.551,0.613,0.463,0.226,0.201,0.142,0.189,0.149
NCI-H727,0.411,0.459,0.623,0.67,0.717,0.847,1.01,0.981,1.6,1.22,1.52,1.57,1.49,0.489,0.286,0.403,0.349,0.271
NCI-H838,1.13,1.11,1.25,1.14,0.906,0.97,1.07,0.895,0.763,0.657,0.583,0.41,0.307,0.355,0.324,0.3,0.328,0.31
NCI-H1355,0.919,0.813,1.09,0.871,0.971,0.948,1,0.935,0.663,0.626,0.686,0.583,0.57,0.757,0.757,0.78,0.628,0.707
NCI-H1395,1.15,0.976,1.23,1.13,0.886,0.876,0.987,1.18,0.622,0.772,0.704,,0.796,0.439,0.428,0.406,0.437,0.375
NCI-H1437,1.06,1.11,1.1,1.12,0.765,0.912,0.827,0.769,0.882,0.874,0.991,1.02,1.03,0.527,0.465,0.393,0.365,0.439
NCI-H1650,1.11,1.37,1.12,1.22,0.561,0.751,0.821,0.736,0.7,0.663,0.675,0.663,0.648,0.319,0.305,0.273,0.283,0.28
NCI-H1651,0.897,1.07,0.963,1.16,0.673,0.863,0.724,0.949,0.603,0.526,0.647,0.586,0.561,0.378,0.522,0.378,0.336,0.417
NCI-H1666,0.807,0.877,1.06,1.02,0.522,0.739,0.845,0.625,1.1,1.05,1.22,1.5,1.31,0.821,0.843,0.755,0.841,0.955
NCI-H1734,0.703,1.01,0.88,0.852,0.856,1.07,1.15,1.07,0.701,0.791,0.823,0.576,0.806,0.47,0.449,0.459,0.473,0.444
NCI-H1755,0.978,0.942,1.04,0.935,1.03,0.973,1.07,1,0.672,0.737,0.75,0.811,0.826,0.408,0.46,0.488,0.464,0.333
NCI-H1793,0.305,0.331,0.414,0.526,0.581,0.725,0.644,0.666,0.894,0.905,0.991,,1.01,0.417,0.367,0.405,0.388,0.423
NCI-H1915,0.798,0.784,0.78,0.778,0.964,1.09,1.02,0.946,,0.546,0.547,,0.462,0.319,0.316,0.321,0.301,0.283
NCI-H1944,0.989,0.937,1.09,1,0.76,0.775,0.819,0.801,0.56,0.553,0.616,0.491,0.582,0.254,0.23,0.234,0.196,0.22
NCI-H1975,1.18,1.2,1.19,1.09,0.905,1.08,1.05,0.83,0.734,0.649,0.667,0.609,0.584,0.421,0.446,0.365,0.356,0.329
NCI-H1993,0.9,0.866,1.01,0.908,0.764,0.881,0.837,0.778,0.772,1.02,,0.811,0.718,0.631,0.656,0.709,0.526,0.479
NCI-H2009,1.16,1.18,1.17,1.14,0.998,1.01,1.07,0.888,0.617,0.703,0.683,0.703,0.632,0.324,0.318,0.296,0.308,0.24
NCI-H2023,0.909,1.05,1.06,0.979,0.615,0.909,1.03,0.974,0.645,0.621,0.863,,0.819,0.677,0.616,0.536,0.606,0.497
NCI-H2085,1.21,0.869,1.18,1.24,0.877,0.51,0.819,0.772,0.77,0.705,0.806,0.667,0.706,0.22,0.246,0.24,0.224,0.261
NCI-H2087,1.04,0.973,0.969,0.903,1.25,1.26,0.944,0.948,0.659,0.58,0.466,0.593,0.549,0.842,0.876,0.77,0.967,0.686
NCI-H2126,0.858,0.832,0.821,0.828,0.738,0.752,0.812,0.741,1.02,0.685,0.738,0.432,0.916,0.614,0.626,0.614,0.628,0.572
NCI-H2170,0.472,0.697,0.72,0.698,0.247,0.28,0.269,0.291,0.854,0.886,0.902,0.771,0.846,0.625,0.586,0.574,0.568,0.512
NCI-H2228,0.82,1.31,0.647,0.951,0.926,1.06,1.62,1.19,0.832,0.576,0.638,0.976,0.56,0.624,0.524,0.537,0.462,0.433
NCI-H2347,0.784,0.556,0.855,0.823,0.956,0.735,0.977,0.996,0.762,0.508,0.554,0.559,0.676,0.333,,0.309,0.26,0.303
NCI-H2405,1.03,0.823,1.5,0.849,1.12,1.01,1.12,1.16,,1.09,1.02,0.699,0.404,0.228,0.225,0.195,0.227,0.188
NCI-H3122,0.98,1.05,0.979,1.03,0.972,1.03,1.04,1.04,1.04,1.04,1.02,1.03,1.29,0.775,0.817,0.791,0.92,0.926

# Source: the supplement of paper PMC10307832
